The values that follow come from ChEMBL document CHEMBL1140395, “Diamino-C,N-diarylpyridine positional isomers as inhibitors of lysophosphatidic acid acyltransferase-beta” (Bioorg Med Chem Lett, 2005).

“And” between values parts separate entries of the source, which are not always exact repeats. Equal values may be shown once.

The target in this experiment is T1, 1-acyl-sn-glycerol-3-phosphate acyltransferase beta (Homo sapiens, UniProt O15120).
T1 sequence (O15120 whole entry): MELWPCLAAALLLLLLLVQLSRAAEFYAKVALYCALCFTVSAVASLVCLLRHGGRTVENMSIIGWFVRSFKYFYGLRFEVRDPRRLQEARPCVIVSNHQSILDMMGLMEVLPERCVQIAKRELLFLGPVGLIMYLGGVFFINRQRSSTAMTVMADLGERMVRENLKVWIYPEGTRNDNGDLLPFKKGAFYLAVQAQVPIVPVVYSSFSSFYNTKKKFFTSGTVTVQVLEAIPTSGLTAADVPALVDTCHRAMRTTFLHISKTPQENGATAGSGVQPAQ
Kind of experiment: Inhibitory activity against Lysophosphatidic acid acyltransferase-beta enzyme over-expressed in Sf9 insect cell membrane.
In the case of `CCOc1ccc(Cl)cc1-c1nc(N)nc(Nc2ccc(Cl)cc2)n1`, the IC50 (usually the concentration that gives 50% inhibition) was 260 nM.
As to `COc1ccc(Cl)cc1-c1cc(Nc2ccc(C)cc2)cc(N)n1`, the IC50 was > 40000 nM.
Turning to `COc1ccc(Cl)cc1-c1nc(N)nc(Nc2ccc(Cl)cc2)n1`, the IC50 is 70 nM and 45 nM.
On to `COc1ccc(Cl)cc1-c1cc(N)nc(Nc2ccc(Cl)cc2)n1`, for which the IC50 is 2050 nM.
